Biological target: T1, endothelin converting enzyme (ECE) (Oryctolagus cuniculus, UniProt A0A5F9CTJ8)
T1 construct: The left saphenous artery was removed and cleaned of the surrounding tissue, cut into 2-3 mm length rings; from tissue; host or cells: left saphenous artery rings of male New Zealand rabbits
T1 sequence (A0A5F9CTJ8 1-783): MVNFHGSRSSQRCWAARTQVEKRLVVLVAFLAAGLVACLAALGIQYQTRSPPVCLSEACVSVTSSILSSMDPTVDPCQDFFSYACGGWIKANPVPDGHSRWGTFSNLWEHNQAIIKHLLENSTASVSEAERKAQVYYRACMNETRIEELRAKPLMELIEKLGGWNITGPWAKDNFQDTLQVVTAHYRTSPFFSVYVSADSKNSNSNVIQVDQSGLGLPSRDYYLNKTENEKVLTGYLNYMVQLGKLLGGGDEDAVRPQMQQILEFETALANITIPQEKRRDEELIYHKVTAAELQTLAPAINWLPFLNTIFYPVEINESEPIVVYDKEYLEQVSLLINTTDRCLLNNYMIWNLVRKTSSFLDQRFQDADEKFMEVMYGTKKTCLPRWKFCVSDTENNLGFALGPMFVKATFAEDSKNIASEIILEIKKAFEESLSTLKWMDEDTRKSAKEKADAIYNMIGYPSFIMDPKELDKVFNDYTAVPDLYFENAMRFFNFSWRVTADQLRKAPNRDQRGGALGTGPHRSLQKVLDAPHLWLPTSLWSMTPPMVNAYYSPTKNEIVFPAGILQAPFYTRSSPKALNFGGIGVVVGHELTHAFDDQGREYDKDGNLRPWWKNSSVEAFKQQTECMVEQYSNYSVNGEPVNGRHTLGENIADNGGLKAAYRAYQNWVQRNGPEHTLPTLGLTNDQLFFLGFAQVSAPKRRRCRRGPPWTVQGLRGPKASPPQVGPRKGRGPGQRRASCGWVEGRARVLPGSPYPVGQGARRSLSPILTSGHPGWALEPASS
Test: In vitro ECE-inhibitory activity (inhibition of Big endothelin response in rabbit left saphenous artery rings)
Format: cell-based, New Zealand rabbits
Conditions: human Big endothelin 3×10^-8 M, compound contact 30 minutes
Experimental: Male New Zealand rabbits (2.5-3 Kg) were sacrificed with an excess of pentobarbital and blood was drawn. […] This solution was composed of (mM); NaCl, 118; KCl, 4.7; CaCl2, 2.5; KH2 PO4, 1.2; MgSO4, 1.2; NaHCO3, […]; glucose, 11. The preparations were kept under tension and readjusted to 1 g during the equilibration period (1 hour).
After said period, the preparations were exposed to a submaximal concentration of norepinephrine 1 μM which was repeated every 30 minutes until the response was stable. A concentration of acetylcholine 10 μM on the contraction of norepinephrine verified the presence of the endothelium.
After 30 minutes from the last contraction due to norepinephrine, a concentration of human Big endothelin 3×10^-8 M was administered. […] The percentage of ECE-inhibition was expressed as IC50 value (nM).

IC50: 0.05 µM
SMILES: CC(C)C[C@H](NP(=O)(O)O[C@@H]1O[C@@H](C)[C@H](O)[C@@H](O)[C@H]1O)C(=O)N[C@@H](Cc1c[nH]c2ccccc12)C(=O)O [Phosphoramidon, N-[N-[[(6-deoxy-α-L-mannopyranosyl)oxy]hydroxyphos-phinyl]-l-leucyl]-L-tryptophan]

Reference: patent publication US5438046A, “N-heteroaryl substituted derivatives of propanamide useful in the treatment of cardiovascular diseases” (Zambon Group S.p.A., priority 1993, dated 1995)
